Molecules are shown by their SMILES. pIC50: −log10 of the molar value. Where only a bound is given, the exact number is not on record here.

The target of this test is T1, Cholecystokinin receptor type A (Cavia porcellus, UniProt Q63931).
T1 sequence (Q63931 whole entry): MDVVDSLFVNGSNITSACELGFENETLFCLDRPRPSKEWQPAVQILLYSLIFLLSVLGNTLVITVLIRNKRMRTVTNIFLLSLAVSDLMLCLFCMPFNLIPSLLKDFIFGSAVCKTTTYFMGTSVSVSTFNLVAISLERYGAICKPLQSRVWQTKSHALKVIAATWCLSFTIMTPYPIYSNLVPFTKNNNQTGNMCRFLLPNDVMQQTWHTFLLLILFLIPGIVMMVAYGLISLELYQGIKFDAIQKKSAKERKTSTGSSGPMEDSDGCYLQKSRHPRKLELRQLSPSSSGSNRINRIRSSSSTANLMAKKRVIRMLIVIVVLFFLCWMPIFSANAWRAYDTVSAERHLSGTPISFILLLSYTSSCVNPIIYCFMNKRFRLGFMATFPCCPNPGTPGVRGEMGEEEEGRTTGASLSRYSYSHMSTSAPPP
Kind of test: In vitro binding affinity for the cholecystokinin type A receptor in guinea pig pancreas assayed using [125I]BH-CCK-8 as radioligand.
`Cc1ccc2c(c1)N(CC(=O)NC(C)(C)C)C(=O)[C@H](NC(=O)Nc1cccc(Cl)c1)C[C@@H]2Cc1ccccc1` showed a pIC50 below 5.00.
With `CC(C)(C)NC(=O)CN1C(=O)[C@H](NC(=O)Nc2cccc(Cl)c2)C[C@H](c2cccc(Cl)c2)c2ccccc21`, the pIC50 is 7.16.
For `Cc1cccc2c1N(CC(=O)NC(C)(C)C)C(=O)[C@H](NC(=O)Nc1cccc(Cl)c1)C[C@@H]2c1ccccc1` the value was 7.11; for `Cc1ccc([C@H]2C[C@@H](NC(=O)Nc3cccc(Cl)c3)C(=O)N(CC(=O)NC(C)(C)C)c3cc(C)ccc32)cc1`, 6.38; for `CCC(C)(C)NC(=O)CN1C(=O)[C@H](NC(=O)Nc2cccc(Cl)c2)C[C@H](c2ccccc2)c2ccccc21`, 6.84.
`Cc1cccc(NC(=O)N[C@@H]2C[C@H](c3ccccc3)c3ccccc3N(CC(=O)NC(C)(C)C)C2=O)c1` showed a pIC50 of 6.54.
In the case of `CC(C)(C)NC(=O)CN1C(=O)[C@H](NC(=O)Nc2ccc(Cl)cc2)C[C@H](c2ccccc2)c2ccccc21` it was 6.40; in that of `Cc1ccc2c(c1)N(CC(=O)OC(C)(C)C)C(=O)[C@H](NC(=O)Nc1cccc(Cl)c1)C[C@@H]2c1ccccc1`, 7.47; in that of `CC1(NC(=O)CN2C(=O)[C@H](NC(=O)Nc3cccc(Cl)c3)C[C@H](c3ccccc3)c3ccccc32)CCCCC1`, 6.33.
For `Cc1ccc2c(c1)N(CC(=O)NC(C)(C)C)C(=O)[C@@H](NC(=O)Nc1cccc(Cl)c1)C[C@H]2c1ccccc1` the value was 6.44.
The compound `CCc1ccc2c(c1)N(CC(=O)NC(C)(C)C)C(=O)[C@H](NC(=O)Nc1cccc(Cl)c1)C[C@@H]2c1ccccc1` gave a pIC50 of 7.15.
For `CC(C)(NC(=O)CN1C(=O)[C@H](NC(=O)Nc2cccc(Cl)c2)C[C@H](c2ccccc2)c2ccccc21)c1ccccc1` the value was 6.34; for `Cc1ccc2c(c1)N(CC(=O)NC(C)(C)C)C(=O)[C@H](NC(=O)Nc1cccc(Cl)c1)C[C@@H]2c1ccccc1` (stereo in doubt; 43a), 6.89.
In the case of `Cc1ccc(NC(=O)N[C@@H]2C[C@H](c3ccccc3)c3ccccc3N(CC(=O)NC(C)(C)C)C2=O)cc1`, the pIC50 is 5.94.
`CC(C)(C)NC(=O)CN1C(=O)[C@H](NC(=O)Nc2cccc(Cl)c2)C[C@H](C2CCCCC2)c2ccccc21`: the pIC50 was 6.77.
For `CC(C)(C)NC(=O)CN1C(=O)[C@@H](NC(=O)Nc2cccc(Cl)c2)C[C@H](C2CCCCC2)c2ccccc21` the value was below 5.00; for `Cc1ccc2c(c1)[C@@H](c1ccccc1)C[C@@H](NC(=O)Nc1cccc(Cl)c1)C(=O)N2CC(=O)NC(C)(C)C`, 6.50; for `CC(C)(C)NC(=O)CN1C(=O)[C@H](NC(=O)Nc2cccc(Cl)c2)C[C@H](c2ccccc2)c2cc(Cl)ccc21`, 6.54.
For `Cc1ccc2c(c1)N(CC(=O)NC(C)(C)C)C(=O)[C@H](NC(=O)Nc1cccc(Cl)c1)C[C@@H]2C(C)C`, the negative logarithm of the IC50 (pIC50) is 7.14.
For `Cc1ccc2c(c1)N(CC(=O)NC(C)(C)C)C(=O)[C@H](NC(=O)Nc1cccc(Cl)c1)C[C@@H]2C1CCCCC1` the value was 6.25.
Regarding `Cc1ccccc1NC(=O)N[C@@H]1C[C@H](c2ccccc2)c2ccccc2N(CC(=O)NC(C)(C)C)C1=O`, the pIC50 is 5.83.
For `Cc1cccc(NC(=O)N[C@@H]2N=C(c3ccccc3)c3ccccc3N(C)C2=O)c1` [L-365260] the value was 7.07; for `COc1cccc(NC(=O)N[C@@H]2C[C@H](c3ccccc3)c3ccccc3N(CC(=O)NC(C)(C)C)C2=O)c1`, 6.78; for `CN(C(=O)CN1C(=O)[C@H](NC(=O)Nc2cccc(Cl)c2)C[C@H](c2ccccc2)c2ccccc21)C(C)(C)C`, 8.38.
Turning to `Cc1cccc(NC(=O)N[C@@H]2C[C@H](c3ccccc3)c3ccccc3N(CC(=O)OC(C)(C)C)C2=O)c1`, the negative-log IC50 (pIC50) is 7.30.
In turn, `Cc1ccc2c(c1)N(CC(=O)NC(C)(C)C)C(=O)[C@H](NC(=O)Nc1cccc(Cl)c1)C[C@@H]2c1ccccc1` (stereo in doubt; 4) had a pIC50 of 6.75.
In the case of `CC(C)(C)NC(=O)CN1C(=O)[C@H](NC(=O)Nc2cccc(Cl)c2)C[C@H](c2ccccc2)c2ccccc21` it was 6.84; in that of `CC(C)(C)NC(=O)CN1C(=O)[C@H](NC(=O)Nc2cccc(Cl)c2)C[C@H](c2ccccc2)c2ccc(Cl)cc21`, 6.49.

The values above are taken from ChEMBL document CHEMBL1127392, “5-Phenyl-3-ureidobenzazepin-2-ones as cholecystokinin-B receptor antagonists” (J Med Chem, 1994).
